From PMC9796130, “The First Structure of Human MTHFD2L and Its Implications for the Development of Isoform‐Selective Inhibitors” (Chemmedchem, 2022)

Molecular target: T1, MTHFD2L (Homo sapiens, UniProt Q9H903)
T1 construct: amino acids 50–347, His-tagged
T1 sequence (Q9H903 50-347): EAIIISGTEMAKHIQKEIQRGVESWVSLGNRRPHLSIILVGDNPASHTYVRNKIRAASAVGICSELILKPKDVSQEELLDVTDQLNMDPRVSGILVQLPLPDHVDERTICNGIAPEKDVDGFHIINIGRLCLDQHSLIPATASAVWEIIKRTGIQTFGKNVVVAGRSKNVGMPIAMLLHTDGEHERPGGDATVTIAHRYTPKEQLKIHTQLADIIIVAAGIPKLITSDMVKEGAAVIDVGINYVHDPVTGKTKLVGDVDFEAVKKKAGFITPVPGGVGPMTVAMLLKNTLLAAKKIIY
Experiment: X-ray co-crystal structure ([…] Å); IC50 on purified enzyme by NAD(P)H-Glo luminescence assay
Type: biochemical

IC50: 174 nM
SMILES: Nc1nc(N)c(NC(=O)Nc2ccc(C(=O)NC(CCC(=O)O)C(=O)O)cc2)c(O)n1 (stereo not shown) [TH7299]
